pIC50: −log10 of the molar value. Where “and” joins values, the source holds several entries; their conditions need not be identical. Equal values may be shown once.
Tests used:
HDAC1 = HDAC1 (Homo sapiens, UniProt Q13547); test: HDAC inhibition by SAMDI mass spectrometry, HDAC1; assay type: biochemical
Jurkat J.γ = test: Cell viability assay; assay type: cell-based
MMP1 = molecular target: T1, MMP1 (Homo sapiens, UniProt P03956); test: MMP assay; assay type: biochemical; settings: 10µM
T1 sequence (P03956 100-269 limits assumed): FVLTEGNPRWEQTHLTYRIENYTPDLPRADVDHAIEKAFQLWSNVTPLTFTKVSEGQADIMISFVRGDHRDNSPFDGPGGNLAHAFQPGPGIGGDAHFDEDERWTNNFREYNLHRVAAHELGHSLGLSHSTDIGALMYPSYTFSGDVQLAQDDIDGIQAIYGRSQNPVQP

MMP2 = MMP2 (Homo sapiens, UniProt P08253); test: MMP assay; assay type: biochemical; settings: 10µM
Sequence of MMP2 (P08253 110-446 limits assumed): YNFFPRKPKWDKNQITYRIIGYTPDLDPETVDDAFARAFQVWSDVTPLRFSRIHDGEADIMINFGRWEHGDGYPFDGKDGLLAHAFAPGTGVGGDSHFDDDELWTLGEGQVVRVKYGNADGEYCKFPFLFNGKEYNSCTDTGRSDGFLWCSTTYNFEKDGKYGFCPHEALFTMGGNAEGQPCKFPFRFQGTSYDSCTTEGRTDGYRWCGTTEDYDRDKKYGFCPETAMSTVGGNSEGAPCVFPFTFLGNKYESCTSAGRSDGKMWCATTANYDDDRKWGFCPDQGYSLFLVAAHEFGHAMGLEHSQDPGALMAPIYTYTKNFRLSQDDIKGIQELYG

MMP3 = MMP3 (Homo sapiens, UniProt P08254); test: MMP assay; assay type: biochemical; settings: 10µM
Sequence of MMP3 (P08254 100-272 limits assumed): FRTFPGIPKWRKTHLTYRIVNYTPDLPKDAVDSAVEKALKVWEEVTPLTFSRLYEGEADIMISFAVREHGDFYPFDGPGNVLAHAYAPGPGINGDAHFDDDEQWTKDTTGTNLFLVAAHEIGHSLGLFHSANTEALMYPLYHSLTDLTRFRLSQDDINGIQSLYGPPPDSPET

MMP7 = molecular target: T2, MMP7 (Homo sapiens, UniProt P09237); test: MMP assay; assay type: biochemical; settings: 10µM
T2 sequence (P09237 95-267): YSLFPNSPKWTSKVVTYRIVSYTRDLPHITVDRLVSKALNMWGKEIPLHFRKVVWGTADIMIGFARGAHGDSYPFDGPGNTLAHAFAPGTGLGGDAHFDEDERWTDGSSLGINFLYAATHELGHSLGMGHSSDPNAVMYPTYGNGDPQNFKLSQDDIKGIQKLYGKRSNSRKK

MMP9 = MMP9 (Homo sapiens, UniProt P14780); test: MMP assay; assay type: biochemical; settings: 10µM
Sequence of MMP9 (P14780 107-444 limits assumed): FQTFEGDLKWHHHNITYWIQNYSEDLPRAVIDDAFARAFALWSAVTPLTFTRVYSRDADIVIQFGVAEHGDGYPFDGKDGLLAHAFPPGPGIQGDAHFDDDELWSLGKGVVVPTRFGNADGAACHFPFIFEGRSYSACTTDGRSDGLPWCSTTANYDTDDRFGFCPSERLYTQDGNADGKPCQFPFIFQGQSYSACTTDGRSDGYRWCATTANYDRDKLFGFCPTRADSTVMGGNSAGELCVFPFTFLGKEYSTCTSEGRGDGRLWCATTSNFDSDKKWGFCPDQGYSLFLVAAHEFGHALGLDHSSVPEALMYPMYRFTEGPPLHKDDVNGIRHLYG

MMP14 = MMP14 (Homo sapiens, UniProt P50281); test: MMP assay; assay type: biochemical; settings: 10µM
MMP13 = MMP13 (Homo sapiens, UniProt P45452); test: MMP assay; assay type: biochemical; settings: 10µM
[1] = tested on: tubulin acetylation (HDAC6 inhibition) in LNCaP cell line; test: Western blot analysis for tubulin acetylation; assay type: cell-based; settings: LNCaP cells, 4 hours, 20 µM and IC50 concentration
DU-145 = test: Cell viability assay; assay type: cell-based; settings: for Fold less cytotoxic than 14e, DU145: compared with 14e
LNCaP = test: Cell viability assay; assay type: cell-based
Jurkat = test: Cell viability assay; assay type: cell-based
HDAC6 = molecular target: T3, HDAC6 (Homo sapiens, UniProt Q9UBN7); test: HDAC inhibition by SAMDI mass spectrometry, HDAC6; assay type: biochemical
T3 sequence (Q9UBN7 1-1215): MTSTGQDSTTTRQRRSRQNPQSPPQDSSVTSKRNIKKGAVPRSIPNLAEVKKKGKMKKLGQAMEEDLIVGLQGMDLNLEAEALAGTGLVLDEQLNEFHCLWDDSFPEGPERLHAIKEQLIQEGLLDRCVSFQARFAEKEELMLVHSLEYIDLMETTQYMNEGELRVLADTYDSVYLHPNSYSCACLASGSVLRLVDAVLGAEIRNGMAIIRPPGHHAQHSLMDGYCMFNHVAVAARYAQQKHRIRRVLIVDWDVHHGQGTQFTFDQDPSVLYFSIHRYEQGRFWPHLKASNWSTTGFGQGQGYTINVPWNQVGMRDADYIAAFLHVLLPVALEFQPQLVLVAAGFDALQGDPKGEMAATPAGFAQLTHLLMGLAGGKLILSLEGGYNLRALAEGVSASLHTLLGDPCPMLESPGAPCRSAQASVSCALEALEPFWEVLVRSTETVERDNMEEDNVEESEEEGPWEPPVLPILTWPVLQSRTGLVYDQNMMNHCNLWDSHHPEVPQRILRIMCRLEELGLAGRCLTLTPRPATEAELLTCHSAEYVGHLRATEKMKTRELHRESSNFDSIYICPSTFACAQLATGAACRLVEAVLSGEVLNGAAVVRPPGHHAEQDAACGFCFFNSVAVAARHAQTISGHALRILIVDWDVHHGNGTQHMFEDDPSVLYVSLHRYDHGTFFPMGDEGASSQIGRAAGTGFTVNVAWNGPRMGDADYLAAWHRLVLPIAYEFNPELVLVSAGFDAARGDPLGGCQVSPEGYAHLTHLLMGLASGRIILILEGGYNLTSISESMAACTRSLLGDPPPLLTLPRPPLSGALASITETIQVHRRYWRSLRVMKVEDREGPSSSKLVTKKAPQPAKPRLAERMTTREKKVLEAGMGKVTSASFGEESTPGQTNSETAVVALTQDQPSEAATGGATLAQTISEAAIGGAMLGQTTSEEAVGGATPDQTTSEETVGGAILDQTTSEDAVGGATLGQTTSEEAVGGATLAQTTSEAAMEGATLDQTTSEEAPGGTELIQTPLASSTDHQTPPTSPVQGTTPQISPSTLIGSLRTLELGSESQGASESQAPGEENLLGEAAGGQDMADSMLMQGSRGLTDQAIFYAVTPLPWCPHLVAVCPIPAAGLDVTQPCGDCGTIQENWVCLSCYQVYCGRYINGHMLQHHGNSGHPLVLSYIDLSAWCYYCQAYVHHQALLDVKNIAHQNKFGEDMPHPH

Sequence of HDAC1 (Q13547 whole entry): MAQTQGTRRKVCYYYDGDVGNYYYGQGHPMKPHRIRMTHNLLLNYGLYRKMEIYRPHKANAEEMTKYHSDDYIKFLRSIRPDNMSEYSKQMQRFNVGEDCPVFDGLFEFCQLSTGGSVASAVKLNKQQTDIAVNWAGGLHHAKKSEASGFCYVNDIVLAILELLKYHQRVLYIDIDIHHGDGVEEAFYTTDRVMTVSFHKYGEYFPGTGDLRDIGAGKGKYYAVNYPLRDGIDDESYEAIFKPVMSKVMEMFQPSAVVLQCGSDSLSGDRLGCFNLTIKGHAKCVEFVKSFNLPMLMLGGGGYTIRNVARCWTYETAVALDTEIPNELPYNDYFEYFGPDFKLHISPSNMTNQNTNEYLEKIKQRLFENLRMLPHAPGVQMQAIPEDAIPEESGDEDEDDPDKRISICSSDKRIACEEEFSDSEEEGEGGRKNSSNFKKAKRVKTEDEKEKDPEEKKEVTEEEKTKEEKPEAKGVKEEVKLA

Oc1cccn(CCCCCn2cc(-c3ccccc3)nn2)c1=S [Compound 10d, 1-Phenyltriazolylpentyl-3-hydroxypyridin-2-thione]
HDAC1 inhibition, in words (HDAC1): inactive | pIC50 (Jurkat J.γ; Homo sapiens, Jurkat, 72 h, read-out: Cellular IC50 Jurkat J.γ, 72 hours, MTS): 6.00 | Effect on MMP1 activity (MMP1): inactive | Effect on MMP2 activity (MMP2): inactive | Effect on MMP3 activity (MMP3): inactive | Effect on MMP7 activity (MMP7): inactive | Effect on MMP9 activity (MMP9): inactive | Effect on MMP14 activity (MMP14): inactive | Effect on MMP13 activity (MMP13): halved | Tubulin acetylation level (Western blot) [1]: increased tubulin acetylation but to a lesser extent than SAHA

Oc1cccn(CCCCCCCn2cc(-c3ccccc3)nn2)c1=S [Compound 10f, 1-Phenyltriazolylheptyl-3-hydroxypyridin-2-thione]
Fold less cytotoxic than 14e, DU145 (DU-145): 3 fold | Fold less cytotoxic than 10d, DU145 (DU-145; compared with 10d): 2 fold | Fold less cytotoxic than 14e, LNCaP (LNCaP; compared with 14e): 3 fold | Fold less cytotoxic than 10d, LNCaP (LNCaP; compared with 10d): 2 fold | Fold less cytotoxic than 14e, wild type Jurkat (Jurkat; relative to 14e): 3 fold | Fold less cytotoxic than 10d, wild type Jurkat (Jurkat; relative to 10d): 3 fold

Cc1ccccc1-c1cn(CCCCCn2cccc(O)c2=S)nn1 [Compound 14c, 1-(2-Tolyl)triazolylpentyl-3-hydroxypyridin-2-thione]
Fold less cytotoxic than 14e, DU145 (DU-145): 2 fold

N#Cc1cccc(-c2cn(CCCCCn3cccc(O)c3=S)nn2)c1 [Compound 14e, 1-(3-Benzonitrile)triazolylpentyl-3-hydroxypyridin-2-thione]
HDAC1 inhibition, in words (HDAC1): inactive | HDAC6 potency, fold more effective than 14b (HDAC6; relative to 14b): 3 fold | HDAC6 potency, fold more effective than 10d (HDAC6; relative to 10d): 2.5 fold and 3 fold | Fold more potent than 10d, DU145 (DU-145; relative to 10d): about 2 fold | Fold more potent than 10d, LNCaP (LNCaP; relative to 10d): about 2 fold | Effect on MMP1 activity (MMP1): inactive | Effect on MMP2 activity (MMP2): inactive | Effect on MMP3 activity (MMP3): inactive | Effect on MMP7 activity (MMP7): inactive | Effect on MMP9 activity (MMP9): inactive | Effect on MMP14 activity (MMP14): inactive | Effect on MMP13 activity (MMP13): halved | Tubulin acetylation level (Western blot) [1]: increased tubulin acetylation but to a lesser extent than SAHA

O=C(CCCCCCC(=O)Nc1ccccc1)NO [SAHA, suberoylanilide hydroxamic acid]
Activity against Jurkat Jγ, in words (Jurkat J.γ): inactive

CN1CCc2c(c3ccccc3n2Cc2ccc(C(=O)NO)cc2)C1 [Tubastatin A, reference compound]
Fold less potent than 10d and 14e, LNCaP (LNCaP; relative to 10d and 14e): 2 to 3 fold | Activity against Jurkat Jγ, in words (Jurkat J.γ): inactive

From paper PMC4029159 (Journal of medicinal chemistry, 2013)
